Reference: patent publication US9320280B2, “Methods and compositions for deterring feeding/repelling the brown marmorated stink bug (BMSB), Halyomorpha halys” (The United States of America, as Represented by the …, priority 2012, dated 2016)
“Also recorded” adds a separate entry of the source.

Assays:
[1] = tested on: Halyomorpha halys; experiment: Open-air small cage bioassay: feeding deterrence/repellency on treated peaches and apples; assay type: in vivo; settings: open-air system
Protocol: Small Cage Bioassays: Nymphs and adults were tested for effects of feeding deterrents/repellents from islongifolanone, islongifolenone, C-13, and E-2-decenal applied to organic peaches and gala apples in a small cage. Insects were starved for 16 hours prior to experiments before being transferred in groups of 15 (nymphs) or 10 (adults male or female) to two gallon containers containing one treated fruit, and observed hourly for the number of nymphs on the fruit. Experiments were conducted in a fume hood under the same light and heat conditions as above. Different concentrations of isolongifolanone, isolongifolenone, C-13, and E-2-decenal were tested both individually and combined (equal amount of each component), with a final concentration of 70-80 mg/fruit chosen as an effective treatment. Compounds (400 mg) were combined with the emulsifier Tween-80 (2 mg), mixed with water (H2O 10 ml) in glass vial (20 ml), and sonicated for 20 min. The solution containing emulsifier Tween-80 (2 mg) in 10 ml water was used as control. […]
Small cage bioassays were analyzed by replicate, treatment, and time using repeated measures ANOVA and multiple comparisons for treatments were tested using Tukeys HSD, Model: Nymphs on Fruit=Treatment, Rep (Treatment), Time, Treatment*Time.

[2] = tested on: Halyomorpha halys; experiment: Optimized closed-air petri dish bioassay: feeding deterrence on green beans; assay type: in vivo; design: key to significance of repelling insect from treated bean relative to pentane control: p<0.05 (*); p<0.01 (**); p<0.001 (***); n.s.: compound tested was not significant in repelling insect from treated bean; settings: for overall repellent effectiveness (conclusion): all age groups and sexes of H. halys
Protocol: Optimized petri dish bioassays: Insects tested were moved in groups from Thermo Forma cages to plastic petri dishes for food and water deprivation 16-20 hours before bioassays. Adults were separated by age and sex and held in groups of five, nymphs were held in groups of 20. Bioassays were conducted from April-June of 2012 between 8 a.m. and 4 p.m., in a fume hood lined with black paper and covered with black curtain to prevent external visual stimuli. The fume hood was illuminated by a single 60 watt light bulb with a light intensity of 800 LUX, placed 50 cm above bio assay arenas, with 26°-28° C. temperature and 50% relative humidity. Glass petri dishes (10 cm diameter) were used for the bioassay arena and were lined with Whatman's #1 filter paper (9 cm) that was changed before each assay. Adults were bioassayed individually. Nymphs were tested in groups of four because in preliminary assays they were observed continually walking for up to four hours unless conspecifics were present.
We then used the optimized solvent (i.e., pentane) to test the effects of different repellents on deterring H. halys feeding on organic green beans in petri dishes. Insects were tested in a glass Petri dish for their attraction/aversion to 1 μg and 100 μg concentrations of isolongifolanone and isolongifolenone (International Flavors and Fragrances, NY), C-13, and E-2-decenal, diluted in pentane. Pure pentane was tested as a control. Whatman's #1 filter paper (9 cm) was placed in petri dish and 2× one-inch diameter impressions were made with a metal circle. One circle was treated with 75 ul of pentane (control) and the other with pentane+repellant (treatment) and dried for five minutes. One-inch sections of organic green beans were placed over the treated or untreated circle. Starved insects were introduced to the petri dish assay arena and observed at three time points in 45 minute increments for 2.25 hours. Their location was recorded as feeding with stylet inserted on the treatment (i.e., odor) bean, blank bean, or off bean (i.e., walking off of food source or no movement in petri dish and not on bean). Individuals were only used for one bioassay at the adult or nymphal stage in their lifetime. Petri dishes were rinsed with water daily and baked overnight at 100° C., and were rinsed with acetone after every six uses.
Optimized petri dish bioassays were analyzed for each age group, sex, and treatment using Likelihood Ratio tests (JMP®). Percent response for each choice per compound was averaged over the three time periods observed. The likelihood of the three choices was set to the level determined by the pentane control for each age/sex group, and the confidence interval set at 95%. P-values are indicated as follows: *=0.05; **=0.01; ***=0.001.

[3] = tested on: Halyomorpha halys; settings: for feeding on solvent-treated versus untreated green bean: starved adult males ages 3-7 days, 35 μl of solvent on 1-inch section of green bean
Protocol: We tested the effects of solvent on H. halys survival and feeding behavior to optimize the solvent used in petri dish assays. Mortality of 3rd stage nymphs, and adult males and females (ages 3-7 days or 13-23 days into adult stage), was quantified as the percentage of individuals who died after exposure to methylene chloride (DCM) after 2.25 hours. […] Insects were starved for 16-20 hours prior to being exposed to 1 inch cut sections of organic green beans in a 10 cm petri covered glass petri dish. One bean was coated with […] solvent while the other was untreated. Behaviors of young adult male individuals were recorded at three time points (45, 90, and 135 minutes) as feeding on the blank (untreated) bean, feeding on the odor (solvent-treated) bean, or sitting on the wall of the petri dish. Percent response for each choice was averaged over the three time periods.

[4] = Nymph (3rd stage), starved, 1 μg in pentane on filter paper under green bean
[5] = Nymph (3rd stage), starved, 100 μg in pentane on filter paper under green bean
[6] = Old Adult Male (13-23 days), 1 μg
[7] = Old Adult Male (13-23 days), 100 μg
[8] = Young Adult Male (3-7 days), 1 μg
[9] = Young Adult Male (3-7 days), 100 μg
[10] = starved nymphs (3rd stage), 1 μg, FIG. 6A
[11] = starved nymphs (3rd stage), 100 μg, FIG. 6A
[12] = young adult males (3-7 days), 100 μg, FIG. 6B
[13] = old adult females, 100 μg, FIG. 6E
[14] = young adult females, 100 μg, FIG. 6C

Row | Molecule | significance of repelling insect from treated bean relative to pentane control [2, 4] | significance of repelling insect from treated bean relative to pentane control [2, 5] | significance of repelling insect from treated bean relative to pentane control ([2]; Old Adult Female, 1 μg) | significance of repelling insect from treated bean relative to pentane control ([2]; Old Adult Female, 100 μg) | significance of repelling insect from treated bean relative to pentane control [2, 6] | significance of repelling insect from treated bean relative to pentane control [2, 7] | significance of repelling insect from treated bean relative to pentane control ([2]; Young Adult Female, 1 μg) | significance of repelling insect from treated bean relative to pentane control ([2]; Young Adult Female, 100 μg) | significance of repelling insect from treated bean relative to pentane control [2, 8] | significance of repelling insect from treated bean relative to pentane control [2, 9] | likelihood to feed on treated green bean (in words) [2, 11] | likelihood to feed on treated green bean (in words) [2, 12] | feeding on solvent-treated versus untreated green bean [3] | repellency/deterrence across age groups and sexes (summary of Table 1) ([2]; 100 μg concentration) | other results
1 | CCCCCCCCCCCCC [C-13, tridecane] | *** (p<0.001 (***)) | ** (p<0.01 (**)) | n.s. | n.s. | n.s. | * (p<0.05 (*)) | n.s. | n.s. | n.s. | * (p<0.05 (*)) | significantly less likely to feed | significantly less likely to feed | – | – | repellency in small cage tests compared with petri dish [1]: decreased repellency; repellency/deterrence across age groups and sexes (summary) ([2]; concentration not given, diluted in pentane): deterrent to young males and old adult males and nymphs; also recorded: deterred H. halys feeding; likelihood to feed on treated green bean (in words) ([2]; old adult males (13-23 days), 1 μg, FIG. 6D): significantly less likely to feed; likelihood to feed on treated green bean (in words) [2, 10]: significantly less likely to feed
2 | CCCCCC [hexane] | – | – | – | – | – | – | – | – | – | – | – | – | significantly less likely to feed | – | –
3 | CCCCC [pentane] | – | – | – | – | – | – | – | – | – | – | – | – | slight preference for pentane-treated green beans over the untreated control bean | – | –
4 | isolongifolanone | – | *** (p<0.001 (***)) | – | *** (p<0.001 (***)) | – | *** (p<0.001 (***)) | – | *** (p<0.001 (***)) | – | *** (p<0.001 (***)) | significantly less likely to feed | significantly less likely to feed | – | significantly repellent to all age groups and sexes | overall repellent effectiveness (conclusion) [2]: highly effective repellents; likelihood to feed on treated green bean (in words) [2, 13]: significantly less likely to feed; also recorded: deterred; likelihood to feed on treated green bean (in words) ([2]; old adult males (13-23 days), 100 μg, FIG. 6D): significantly less likely to feed; likelihood to feed on treated green bean (in words) [2, 14]: significantly less likely to feed; also recorded: deterred
5 | CC1(C)C2=CC(=O)CC(C)(C)[C@]23CC[C@H]1C3 [isolongifolenone] | *** (p<0.001 (***)) | ** (p<0.01 (**)) | n.s. | * (p<0.05 (*)) | n.s. | n.s. | n.s. | *** (p<0.001 (***)) | n.s. | *** (p<0.001 (***)) | significantly less likely to feed | significantly less likely to feed | – | deterring all groups except for old adult males | overall repellent effectiveness (conclusion) [2]: highly effective repellents; likelihood to feed on treated green bean (in words) [2, 13]: significantly less likely to feed; also recorded: deterred; likelihood to feed on treated green bean (in words) [2, 10]: significantly less likely to feed; likelihood to feed on treated green bean (in words) [2, 14]: significantly less likely to feed; also recorded: deterred
6 | CC(C)=O [acetone] | – | – | – | – | – | – | – | – | – | – | – | – | significantly less likely to feed | – | –
7 | CCCCCCC/C=C/C=O [E-2-decenal] | ** (p<0.01 (**)) | n.s. | n.s. | * (p<0.05 (*)) | n.s. | * (p<0.05 (*)) | n.s. | n.s. | ** (p<0.01 (**)) | n.s. | – | – | – | effective at deterring old adult males | repellency/deterrence across age groups and sexes (summary of Table 1) ([2]; 1 μg): effective at deterring Nymphs, young adult males, and old adult females; likelihood to feed on treated green bean (in words) ([2]; young adult males (3-7 days), 1 μg, FIG. 6B): significantly less likely to feed
8 | ClCCl [methylene chloride (DCM), methylene chloride] | – | – | – | – | – | – | – | – | – | – | – | – | significantly less likely to feed | – | mortality (susceptibility) after exposure to solvent ([3]; 3rd stage nymphs, adult males and females, after 2.25 hours): young adult males were the most susceptible
9 | CCO [ethanol] | – | – | – | – | – | – | – | – | – | – | – | – | Less feeding aversion | – | –
